Measured values published in US12318382B2, “Methods of treating rheumatic diseases using trimetazidine-based compounds” (IMBRIA PHARMACEUTICALS, INC., priority 2018, dated 2025).

Assay: Stability of CV-8972 in aqueous solution at different concentrations and pH
Type: physicochemical
Procedure: The stability of CV-8972 was analyzed. Aqueous samples containing CV-8972 at different concentrations and pH were incubated for various periods and analyzed.
Form A of CV-8972 were analyzed for stability in aqueous solution. Aqueous samples containing CV-8972 at different concentrations and pH were incubated for various periods and analyzed.

For `COc1ccc(CN2CCN(CCOC(=O)c3cccnc3)CC2)c(OC)c1OC` [CV-8972, 2-(4-(2,3,4-trimethoxybenzyl)piperazin-1-yl)ethyl nicotinate], the “Retention Time 5.6 (purity of CV-8972)” value (276-MBA-172 2 mg/mL pH 6 (Form A), 0 hrs) was 98.01, the “Retention Time 5.6 (purity of CV-8972)” value (276-MBA-172 2 mg/mL pH 6 (Form A), 1 hrs) was 97.22 and the “Retention Time 5.6 (purity of CV-8972)” value (276-MBA-172 2 mg/mL pH 6 (Form A), 4 hrs) was 97.01. For the same compound, the “Retention Time 5.6 (purity of CV-8972)” value (276-MBA-172 2 mg/mL pH 6 (Form A), 6 hrs) was 96.51, the “Retention Time 5.6 (purity of CV-8972)” value (276-MBA-172 2 mg/mL pH 7 (Form A), 0 hrs) was 97.53 and the “Retention Time 5.6 (purity of CV-8972)” value (276-MBA-172 2 mg/mL pH 7 (Form A), 1 hrs) was 95.06. For the same compound, the “Retention Time 5.6 (purity of CV-8972)” value (276-MBA-172 2 mg/mL pH 7 (Form A), 4 hrs) was 93.7, the “Retention Time 5.6 (purity of CV-8972)” value (276-MBA-172 2 mg/mL pH 7 (Form A), 6 hrs) was 92.12 and the “Retention Time 5.6 (purity of CV-8972)” value (276-MBA-172 2 mg/mL pH 7 (Form A), 22 hrs) was 91.07. The “Retention Time 5.6 (purity of CV-8972)” value (276-MBA-172 10 mg/mL pH 6 (Form A), 0 hrs) was 95.24, the “Retention Time 5.6 (purity of CV-8972)” value (276-MBA-172 10 mg/mL pH 6 (Form A), 1 hrs) was 93.43 and the “Retention Time 5.6 (purity of CV-8972)” value (276-MBA-172 10 mg/mL pH 6 (Form A), 4 hrs) was 91.82. For the same compound, the “Retention Time 5.6 (purity of CV-8972)” value (276-MBA-172 10 mg/mL pH 6 (Form A), 6 hrs) was 91.8, the “Retention Time 5.6 (purity of CV-8972)” value (276-MBA-172 10 mg/mL pH 6 (Form A), 22 hrs) was 89.66 and the “Retention Time 5.6 (purity of CV-8972)” value (276-MBA-172 10 mg/mL pH 7 (Form A), 0 hrs) was 92.85. The “Retention Time 5.6 (purity of CV-8972)” value (276-MBA-172 10 mg/mL pH 7 (Form A), 1 hrs) was 89.05, the “Retention Time 5.6 (purity of CV-8972)” value (276-MBA-172 10 mg/mL pH 7 (Form A), 4 hrs) was 86.8 and the “Retention Time 5.6 (purity of CV-8972)” value (276-MBA-172 10 mg/mL pH 7 (Form A), 6 hrs) was 84.79. The “Retention Time 5.6 (purity of CV-8972)” value (289-MBA-15-A 2 mg/mL pH 6 (Form B), 0 hrs) was 97.48, the “Retention Time 5.6 (purity of CV-8972)” value (289-MBA-15-A 2 mg/mL pH 6 (Form B), 1 hrs) was 95.1 and the “Retention Time 5.6 (purity of CV-8972)” value (289-MBA-15-A 2 mg/mL pH 6 (Form B), 4 hrs) was 92.45. For the same compound, the “Retention Time 5.6 (purity of CV-8972)” value (289-MBA-15-A 2 mg/mL pH 6 (Form B), 6 hrs) was 90.65, the “Retention Time 5.6 (purity of CV-8972)” value (289-MBA-15-A 2 mg/mL pH 6 (Form B), 22 hrs) was 89.15 and the “Retention Time 5.6 (purity of CV-8972)” value (289-MBA-15-A 2 mg/mL pH 7 (Form B), 0 hrs) was 97.48. For the same compound, the “Retention Time 5.6 (purity of CV-8972)” value (289-MBA-15-A 2 mg/mL pH 7 (Form B), 1 hrs) was 95.46, the “Retention Time 5.6 (purity of CV-8972)” value (289-MBA-15-A 2 mg/mL pH 7 (Form B), 4 hrs) was 93.92 and the “Retention Time 5.6 (purity of CV-8972)” value (289-MBA-15-A 10 mg/mL pH 6 (Form B), 0 hrs) was 95.36. For the same compound, the “Retention Time 5.6 (purity of CV-8972)” value (289-MBA-15-A 10 mg/mL pH 6 (Form B), 1 hrs) was 94.81, the “Retention Time 5.6 (purity of CV-8972)” value (289-MBA-15-A 10 mg/mL pH 6 (Form B), 4 hrs) was 94.69 and the “Retention Time 5.6 (purity of CV-8972)” value (289-MBA-15-A 10 mg/mL pH 6 (Form B), 6 hrs) was 94.39. For the same compound, the “Retention Time 5.6 (purity of CV-8972)” value (289-MBA-15-A 10 mg/mL pH 6 (Form B), 22 hrs) was 93.93, the “Retention Time 5.6 (purity of CV-8972)” value (289-MBA-15-A 10 mg/mL pH 7 (Form B), 0 hrs) was 91.5 and the “Retention Time 5.6 (purity of CV-8972)” value (289-MBA-15-A 10 mg/mL pH 7 (Form B), 1 hrs) was 86.18. The “Retention Time 5.6 (purity of CV-8972)” value (289-MBA-15-A 10 mg/mL pH 7 (Form B), 4 hrs) was 82.36 and the “Retention Time 5.6 (purity of CV-8972)” value (289-MBA-15-A 10 mg/mL pH 7 (Form B), 6 hrs) was 79.37.
